#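 Briefly, cells in 96-well plates were exposed to five compound concentrations for 48 h, and endpoints were estimated by linear interpolation. GI50 is the concentration that inhibits growth by half.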 Calls of active or inactive are those of the source. No stated cut-off is given here; in the data, active = GI50 up to about 1.1 µM and inactive = higher.
# How the values were obtained:
# Test in all cases: NCI anticancer screen, dose series, 48 h
# ACHN = test system: ACHN
# EKVX = test system: EKVX
# HCT-15 = test system: HCT-15
# K562 = test system: K562
# LOX IMVI = test system: LOX IMVI
# MOLT-4 = test system: MOLT-4
# NCI-H23 = test system: NCI-H23
# NCI-H522 = test system: NCI-H522
# OVCAR-4 = test system: OVCAR-4
# OVCAR-5 = test system: OVCAR-5
# OVCAR-8 = test system: OVCAR-8
# SK-MEL-2 = test system: SK-MEL-2
# SK-MEL-5 = test system: SK-MEL-5
# SK-OV-3 = test system: SK-OV-3
# SN12C = test system: SN12C
# T47D = test system: T47D
# TK-10 = test system: TK-10
# UACC-257 = test system: UACC-257
# UACC-62 = test system: UACC-62
# HOP-62 = test system: HOP-62
Compound,GI50 (ACHN),GI50 (EKVX),GI50 (HCT-15) [µM],GI50 (K562),GI50 (LOX IMVI),GI50 (MOLT-4),GI50 (NCI-H23),GI50 (NCI-H522),GI50 (OVCAR-4),GI50 (OVCAR-5),GI50 (OVCAR-8),GI50 (SK-MEL-2),GI50 (SK-MEL-5),GI50 (SK-OV-3),GI50 (SN12C),GI50 (T47D),GI50 (TK-10),GI50 (UACC-257),GI50 (UACC-62),GI50 (HOP-62)
CC1OC(OC2C(O[C@H]3CC[C@@]4(C)C(=CC[C@H]5[C@@H]6C[C@@H]7O[C@]8(CC[C@H](C)CN8)[C@@H](C)[C@@H]7[C@@]6(C)CC[C@@H]54)C3)OC(CO)C(O)C2OC2OC(CO)C(O)C(O)C2O)C(O)C(O)C1O (some centres not stated),17.6 µM (inactive),16.5 µM (inactive),16.7,> 10 µM (inactive),28.3 µM (inactive),18.9 µM (inactive),18.5 µM (inactive),12.8 µM (inactive),19.8 µM (inactive),14.8 µM (inactive),15.5 µM (inactive),18.4 µM (inactive),19.2 µM (inactive),16.9 µM (inactive),20.8 µM (inactive),19.5 µM (inactive),17.3 µM (inactive),18.2 µM (inactive),17.6 µM (inactive),–
CC(C(=O)O)C(C)(O)C(=O)O (configuration not stated),–,> 100 µM (inactive),> 100,> 100 µM (inactive),> 100 µM (inactive),> 100 µM (inactive),> 100 µM (inactive),> 100 µM (inactive),> 100 µM (inactive),61.8 µM (inactive),> 100 µM (inactive),> 100 µM (inactive),> 100 µM (inactive),> 100 µM (inactive),> 100 µM (inactive),> 100 µM (inactive),> 100 µM (inactive),> 100 µM (inactive),> 100 µM (inactive),–
Cc1c(O)c(C)c2c(C)cn(C(=O)C(C)(C)C)c2c1C,14.2 µM (inactive),20 µM (inactive),21.8,24 µM (inactive),35 µM (inactive),23 µM (inactive),15.5 µM (inactive),23.7 µM (inactive),12.6 µM (inactive),30.2 µM (inactive),20.1 µM (inactive),28.2 µM (inactive),14.7 µM (inactive),22.2 µM (inactive),17.9 µM (inactive),23.5 µM (inactive),20.5 µM (inactive),–,14.7 µM (inactive),17.5 µM (inactive)
CCOC(=O)C1C(c2ccc(OC)cc2)c2c(n[nH]c2O)CC1(O)OCC (configuration not stated),> 100 µM (inactive),> 100 µM (inactive),> 100,–,> 100 µM (inactive),> 100 µM (inactive),> 100 µM (inactive),> 100 µM (inactive),> 100 µM (inactive),> 100 µM (inactive),> 100 µM (inactive),> 100 µM (inactive),> 100 µM (inactive),–,> 100 µM (inactive),> 100 µM (inactive),> 100 µM (inactive),> 100 µM (inactive),> 100 µM (inactive),> 100 µM (inactive)
Cc1ccc2c(c1)C(=S)N1CSCC1c1nncn1-2 (configuration not stated),> 100 µM (inactive),> 100 µM (inactive),> 100,> 100 µM (inactive),> 100 µM (inactive),> 100 µM (inactive),–,> 100 µM (inactive),> 100 µM (inactive),> 100 µM (inactive),> 100 µM (inactive),> 100 µM (inactive),> 100 µM (inactive),> 100 µM (inactive),> 100 µM (inactive),> 100 µM (inactive),> 100 µM (inactive),> 100 µM (inactive),> 100 µM (inactive),> 100 µM (inactive)
CC(=O)OC(Cc1ccc2ccccc2n1)(C(F)(F)F)C(F)(F)F,3.78 µM (inactive),4.62 µM (inactive),1.97,0.594 µM (active),0.267 µM (active),0.0796 µM (active),1.58 µM (inactive),0.519 µM (active),2.45 µM (inactive),2.89 µM (inactive),1.69 µM (inactive),1.36 µM (inactive),0.253 µM (active),14.3 µM (inactive),1.27 µM (inactive),0.181 µM (active),0.33 µM (active),–,1.32 µM (inactive),10.4 µM (inactive)
CC(C)(C)c1cc2c(O)c(c1)Cc1cc(C(C)(C)C)cc(c1O)Cc1cc(C(C)(C)C)cc(c1O)Cc1cc(C(C)(C)C)cc(c1O)Cc1cc(C(C)(C)C)cc(c1O)Cc1cc(C(C)(C)C)cc(c1O)Cc1cc(C(C)(C)C)cc(c1O)Cc1cc(C(C)(C)C)cc(c1O)C2,> 50 µM (inactive),> 50 µM (inactive),> 50,> 50 µM (inactive),–,> 50 µM (inactive),> 50 µM (inactive),> 50 µM (inactive),> 50 µM (inactive),> 50 µM (inactive),> 50 µM (inactive),> 50 µM (inactive),> 50 µM (inactive),> 50 µM (inactive),> 50 µM (inactive),> 50 µM (inactive),> 50 µM (inactive),> 50 µM (inactive),> 50 µM (inactive),> 50 µM (inactive)
COC(=O)CCC1(C)C2CCC1/C(=N/O)C2 (configuration not stated),> 100 µM (inactive),> 100 µM (inactive),> 100,> 100 µM (inactive),–,> 100 µM (inactive),> 100 µM (inactive),> 100 µM (inactive),> 100 µM (inactive),> 100 µM (inactive),> 100 µM (inactive),> 100 µM (inactive),> 100 µM (inactive),> 100 µM (inactive),> 100 µM (inactive),> 100 µM (inactive),> 100 µM (inactive),> 100 µM (inactive),> 100 µM (inactive),> 100 µM (inactive)
Cc1ccc(-c2n[nH]c(=O)[nH]2)cc1[N+](=O)[O-],> 100 µM (inactive),0.643 µM (active),> 100,> 100 µM (inactive),> 100 µM (inactive),> 100 µM (inactive),> 100 µM (inactive),> 100 µM (inactive),> 100 µM (inactive),> 100 µM (inactive),> 100 µM (inactive),> 100 µM (inactive),> 100 µM (inactive),–,> 100 µM (inactive),> 100 µM (inactive),> 100 µM (inactive),> 100 µM (inactive),> 100 µM (inactive),> 100 µM (inactive)
O=C(NCc1ccccc1)c1nn[nH]c1O,> 100 µM (inactive),> 100 µM (inactive),> 100,> 100 µM (inactive),–,> 100 µM (inactive),> 100 µM (inactive),> 100 µM (inactive),> 100 µM (inactive),> 100 µM (inactive),> 100 µM (inactive),> 100 µM (inactive),> 100 µM (inactive),> 100 µM (inactive),> 100 µM (inactive),> 100 µM (inactive),> 100 µM (inactive),> 100 µM (inactive),> 100 µM (inactive),> 100 µM (inactive)
O=C(O)CCNc1[nH]cnc2ncnc1-2,> 100 µM (inactive),> 100 µM (inactive),> 100,> 100 µM (inactive),> 100 µM (inactive),–,> 100 µM (inactive),> 100 µM (inactive),> 100 µM (inactive),> 100 µM (inactive),> 100 µM (inactive),> 100 µM (inactive),> 100 µM (inactive),> 100 µM (inactive),> 100 µM (inactive),> 100 µM (inactive),> 100 µM (inactive),> 100 µM (inactive),> 100 µM (inactive),> 100 µM (inactive)

# From ChEMBL document CHEMBL1201862, “PubChem BioAssay data set” (2004)
